Experimental data: patent publication US6887878B2, “KMST isoeugenol derivatives and pharmaceutical activity” (Ing-Jun Chen, priority 2003, dated 2005)
Like-named read-outs stand apart in the source and are kept apart here.

Columns and labels:
[1] = tested on: serotonin-induced human platelet aggregation; experiment: serotonin-induced human platelet aggregation; format: cell-based; settings: Homo sapiens, Platelet; read-out: IC50 serotonin-induced platelet aggregation
Description: Venous blood from human volunteer donors was collected in 10 ml Monovette containing 1 ml citrate solution (0.106M trisodium citrate; Sarstedt, Nümbrecht, Germany) and centrifuged (400 g, 10 min, 20° C.). […] After centrifugation (10 min, 2000 g, 20° C.), the platelet pellet was resuspended in wishing buffer (113 mM NaCl, 4 mM Na2HPO4, 24 mM NaH2PO4, 4 mM KCl, 0.2 mM EGTA(Ethylene glycol-bis-(2-aminoethyl ether) N,N,N′-tetraacetic acid), 0.1% (wt/vol) glucose, pH 6.0) and recentrifuged (10 min, 2000 g, 20° C.). The washed platelets were resuspended in incubation buffer (134 mM NaCl, 12 mM NaHCO3, 2.9 mM KCl, 0.34 mM NaH2PO4, 5 mM HEPES (N-(2-hydroxyethyl) piperazine-N′-(2-ethanesulfonic acid)), 5 mM glucose, pH7.4), cells were counted in a Sysmex hematology analyzer (Sysmex, CDA-500, Japan) and adjusted to a final concentration of 2×10^8 platelets/ml.
The aggregation of the platelets in platelet-rich plasma (PRP) was measured as a change in light absorbance by a Payton dual-channel aggregometer (NBS, Hema tracer, Japan). PRP (240 μL) was stirred (700 rpm) at 37° C. for 1 min, and 5 μL epinephrine (final concentration 5 μM), serotonin (final concentration 5 μM) was added. After which the rate of primary aggregation (1/min) and maximum aggregation (%) at 5 min were recorded. To study the effects of compounds on epinephrine or serotonin-induced aggregation, PRP was incubated with 5 μL of compounds at various concentrations for 1 min before epinephrine or serotonin was added. IC50 values given were calculated from the secondary aggregation data.

[2] = molecular target: T1, 5-HT1B (Rattus norvegicus, UniProt P28564); experiment: [3H]GR125743 receptor binding in rat cortex; design: species or system Wistar rat; settings: [3H]GR125743 (5-HT1B/1D), rat cortex; read-out: Ki 5-HT1B
T1 construct: from tissue; host or cells: Wistar rat cortex membranes
Description: (§1) The homogenate was pressure filtered through muslin. Filtrate was centrifuged at 1000 g for 10 min. […] Protein content was determined by Bradford's method.

[3] = tested on: α1-adrenergic receptor; experiment: noradrenaline-induced contraction in isolated rat thoracic aorta (pA2); design: species or system Wistar rat; settings: Schild plot, mean ± SEM of eight
Description: Clonidine, noradrenaline and serotonin (10^−8˜10^−4 M) were added to the bath to induce contractions after pretreatment with KMST for 15 min.

[4] = molecular target: α1 receptors; experiment: [3H]prazosin receptor binding in rat cortex; design: species or system Wistar rat
Description: as §1

[5] = molecular target: T2, 5-HT1A (Rattus norvegicus, UniProt P19327); experiment: [3H]WAY100635 receptor binding
T2 sequence (P19327 1-422): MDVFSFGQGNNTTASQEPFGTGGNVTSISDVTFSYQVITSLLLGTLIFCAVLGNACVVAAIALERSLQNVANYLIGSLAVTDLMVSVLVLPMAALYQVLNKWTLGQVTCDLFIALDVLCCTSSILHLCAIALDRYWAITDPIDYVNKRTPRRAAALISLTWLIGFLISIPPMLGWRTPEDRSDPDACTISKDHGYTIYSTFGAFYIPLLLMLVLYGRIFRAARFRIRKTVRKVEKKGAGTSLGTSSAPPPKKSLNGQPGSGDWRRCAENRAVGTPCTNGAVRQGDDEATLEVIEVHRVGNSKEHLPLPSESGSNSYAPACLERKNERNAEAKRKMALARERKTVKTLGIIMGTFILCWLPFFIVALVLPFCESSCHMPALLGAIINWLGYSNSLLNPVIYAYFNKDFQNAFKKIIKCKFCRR

[6] = molecular target: α2 receptors; experiment: [3H]yohimbine receptor binding in rat cortex; design: species or system Wistar rat
Description: as §1

[7] = molecular target: T3, β1 receptors (Rattus norvegicus, UniProt P18090); experiment: [3H]CGP-12177 receptor binding in rat ventricle; design: species or system Wistar rat; settings: [3H]CGP-12177, rat ventricle
T3 construct: from tissue; host or cells: Wistar rat heart (ventricle) membranes
Description: as §1

[8] = tested on: IL-1β, IL-6, IFN-γ and TNF-α; experiment: LPS-induced plasma cytokine immunoreactivity; format: in vivo, rat; settings: for LPS-induced elevations of IL-1β, IL-6, IFN-γ and TNF-α levels: 1 mg kg−1, i.v., pretreatment
Description: (§2) In brief, Wistar rats weighing 250-300 g were anesthetized with pentobarbital sodium (50 mg kg^−1, i.p.). Following tracheal cannulation, systemic arterial BP and HR were recorded from the femoral artery by a pressure transducer (model P10EZ; Spectramed, Oxnard, Calif., U.S.A.) connected to a recorder (GOULD, Valley View, Ohio, Model P50). Body temperature was maintained at 37° C. by an electric heating pad. A femoral vein was cannulated for intravenous injection of drugs and LPS (10 mg kg^−1).
Blood was collected from venous cannula, injected into ice-cold heparinized Eppendorf tubes and centrifuged at 1500 rpm for 10 min at 4° C. Plasma supernatant was stored at −70° C. until analyzed. Solid phase enzyme immunoassay that specifically detects murine IL-1β, IL-6, IFN-γ and TNF-α was used with a detection limit of >10 pg/ml (Endogen, U.S.A). Pre-treatment with KMST and other agents was performed 15 minutes before intravenous injection of LPS. Blood was collected from venous cannula. Blood glucose was measured with a glucose test strip (Glucotide, Bayer, U.S.A) at 1, 3 and 5 hours.

[9] = tested on: phenylephrine-induced contractions in rat thoracic aorta; experiment: LPS-induced vascular hyporeactivity: phenylephrine-induced contractions in rat thoracic aorta; format: in vivo, Wistar rat; settings: pD2 to phenylephrine
[10] = tested on: anesthetized rats; experiment: LPS-induced hypotension; format: in vivo, Wistar rat; settings: pretreatment, intravenous LPS
Description: as §2

[11] = tested on: anesthetized rats; experiment: intra-cisternal injection and NTS microinjection, BP and HR; format: in vivo, rat; settings: for BP and HR after intra-cisternal injection and NTS microinjection: central administration
Description: Intra-cisternal injections of KMST (0.3, 0.03 μmol), yohimbine [0.03 μmol), and clonidine (38 pmol), were performed in rats as described by Duan et al (1987). Briefly, rats weighing 250-300 g were anaesthetized with pentobarbital sodium (50 mg kg^−1, i.p.) and mounted in a David-Kopf stereotaxic instrument (Yeh J L. et al., Brain. Res. Bull., 30:641-648, 1993). The calvarium was exposed and a 1 mm diameter trephine hole was drilled 1.8 mm lateral to the coronary and 1.5 mm posterior to the sagittal sutures. A cannula (0.7 mm O.D.) connected to a Hamilton syringe (RN-705, 5051) by PE-50 was advanced 4.7 mm into the brain using the electrode carrier.
Rats were anesthetized and placed in a David-Kopf stereotaxic instrument. The cerebellum was exposed after removing the skin and occipital bone. The NTS coordinates were (reference to lambda) P 5-6 mm, L/R 0.5-1 mm, depth 6-7.5 mm (Wu et al., 1994). NTS injection sites were confirmed by decreasing BP and HR following micro-injection of 1% L-glutamate. […] Pre-treatment with clonidine was performed 15 min before administration of test agents. At the end of experiments, the animals were sacrificed. The brain was removed and sectioned for histological confirmation of the drug application site.

[12] = tested on: epinephrine-induced human platelet aggregation; settings: Mustonen et al., 2000; read-out: estimated IC50 to inhibit epinephrine-induced platelet aggregation; cited from earlier work
[13] = tested on: lipid peroxidation in rat brain homogenate; experiment: lipid peroxidation initiated by Fe2+-ascorbic acid in rat brain homogenates (TBARS); format: biochemical; settings: rat brain homogenates; read-out: IC50 inhibiting lipid peroxidation initiated by Fe2+-ascorbic acid
Description: Rat brain homogenate was made in 0.9% saline containing 10 mg tissue/ml. The rates of membrane lipid peroxidation were measured by the formation of thiobarbituric acid (TBA)-reactive substance (TBARS). Rat brain homogenates (1 ml) were incubated at 37° C. for 5 min with 10 μl of test compound or vehicle. […] After 30 min of incubation, the reaction was stopped by adding 0.1 ml of 0.2% BHT. TBA reagent was then added and the mixture was heated for 30 min in a boiling water bath. […] The amount of TBARS was quantified using the linear regression obtained from malondialdehyde (MDA) standards.

[14] = molecular target: T4, β2 receptors (Rattus norvegicus, UniProt P10608); experiment: [3H]CGP-12177 receptor binding in rat lung; design: species or system Wistar rat; settings: [3H]CGP-12177, rat lung
T4 construct: from tissue; host or cells: Wistar rat lung membranes
Description: as §1

[15] = molecular target: 5-HT2A receptor (Rattus norvegicus, UniProt P14842); experiment: [3H]ketanserin receptor binding in rat cortex; design: from tissue; host or cells: Wistar rat cortex membranes; species or system Wistar rat
Description: as §1

[16] = agent given after LPS injection (1 hr)
[17] = agent given before LPS injection (30 min)

T3 sequence (P18090 whole entry): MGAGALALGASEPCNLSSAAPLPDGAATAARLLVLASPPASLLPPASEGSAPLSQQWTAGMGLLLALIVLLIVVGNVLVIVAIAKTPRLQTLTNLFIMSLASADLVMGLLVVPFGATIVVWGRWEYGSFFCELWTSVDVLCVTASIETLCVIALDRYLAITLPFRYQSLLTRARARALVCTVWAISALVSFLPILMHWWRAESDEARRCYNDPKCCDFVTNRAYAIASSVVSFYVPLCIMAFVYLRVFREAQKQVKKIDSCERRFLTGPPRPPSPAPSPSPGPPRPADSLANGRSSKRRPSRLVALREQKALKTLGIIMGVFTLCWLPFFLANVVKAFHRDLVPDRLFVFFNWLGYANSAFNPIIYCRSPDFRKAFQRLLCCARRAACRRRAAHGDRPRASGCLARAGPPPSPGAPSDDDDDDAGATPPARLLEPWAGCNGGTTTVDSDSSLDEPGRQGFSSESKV
T4 sequence (P10608 whole entry): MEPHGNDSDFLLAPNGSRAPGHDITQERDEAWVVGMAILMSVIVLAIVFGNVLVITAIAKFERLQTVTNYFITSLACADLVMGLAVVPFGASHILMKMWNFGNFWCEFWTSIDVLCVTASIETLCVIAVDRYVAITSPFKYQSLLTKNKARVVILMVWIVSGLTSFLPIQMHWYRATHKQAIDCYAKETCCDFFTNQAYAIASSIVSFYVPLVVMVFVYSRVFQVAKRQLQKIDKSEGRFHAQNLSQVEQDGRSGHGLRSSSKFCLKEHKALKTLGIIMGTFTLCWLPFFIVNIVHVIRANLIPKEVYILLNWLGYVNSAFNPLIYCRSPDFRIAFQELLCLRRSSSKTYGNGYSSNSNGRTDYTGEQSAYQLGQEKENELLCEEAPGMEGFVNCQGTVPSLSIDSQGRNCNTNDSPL
Chain of 5-HT2A receptor (P14842 whole entry): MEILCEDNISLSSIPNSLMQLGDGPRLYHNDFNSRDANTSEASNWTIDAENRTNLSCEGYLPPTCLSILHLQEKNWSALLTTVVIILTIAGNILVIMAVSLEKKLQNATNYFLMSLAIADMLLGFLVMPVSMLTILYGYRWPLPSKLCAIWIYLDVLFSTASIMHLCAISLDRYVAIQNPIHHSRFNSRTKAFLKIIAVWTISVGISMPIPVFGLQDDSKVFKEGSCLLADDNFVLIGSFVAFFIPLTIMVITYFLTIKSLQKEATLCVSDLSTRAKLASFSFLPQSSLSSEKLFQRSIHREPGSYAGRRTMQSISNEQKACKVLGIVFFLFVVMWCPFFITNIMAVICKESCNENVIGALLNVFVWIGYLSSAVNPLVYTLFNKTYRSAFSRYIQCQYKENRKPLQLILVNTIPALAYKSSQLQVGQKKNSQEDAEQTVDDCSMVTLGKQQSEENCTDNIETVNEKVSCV
T1 sequence (P28564 whole entry): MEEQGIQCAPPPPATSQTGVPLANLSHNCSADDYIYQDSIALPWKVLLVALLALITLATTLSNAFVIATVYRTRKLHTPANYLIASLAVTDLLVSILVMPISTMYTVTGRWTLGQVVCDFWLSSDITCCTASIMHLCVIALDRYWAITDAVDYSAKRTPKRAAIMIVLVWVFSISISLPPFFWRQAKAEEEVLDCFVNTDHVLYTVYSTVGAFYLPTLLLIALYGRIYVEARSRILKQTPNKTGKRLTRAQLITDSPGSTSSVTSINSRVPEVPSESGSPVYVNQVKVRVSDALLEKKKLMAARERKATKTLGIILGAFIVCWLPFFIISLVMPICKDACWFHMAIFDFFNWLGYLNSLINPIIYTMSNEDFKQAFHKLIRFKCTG

Molecule: O=C(c1ccc(F)cc1)C1CCN(CCn2c(=O)[nH]c3ccccc3c2=O)CC1 [Ketanserin, reference compound]
- IC50 [1]: 10 nM
- Ki [2]: > 10 µM
- α1 pA2 value [3]: 7.74 ± 0.32
- Ki [4]: 15.8 nM
- Ki [5]: > 10 µM
- Ki [6]: 2270 nM

Molecule: CC(CCc1ccccc1)NCC(O)c1ccc(O)c(C(N)=O)c1 (centres unmarked) [Labetalol, reference compound]
- Ki [4]: 52.5 nM
- Ki [7]: 4.17 nM

Molecule: O=c1n(CCCN2CCN(c3cccc(Cl)c3)CC2)nc2ccccn12 [Trazodone]
- LPS-induced elevations of IL-1β, IL-6, IFN-γ and TNF-α levels [8]: reduced only IL-1β and TNF-α
- pD2 at 3rd hr [9, 16]: 6.01 ± 0.09
- pD2 at 5th hr [9, 16]: 5.04 ± 0.11
- pD2 at 3rd hr [9, 17]: 6.29 ± 0.21
- pD2 at 5th hr [9, 17]: 3.99 ± 0.16
- aortic hyporeactivity and second prolonged hypotensive reaction induced by LPS [10]: inhibited
- BP and HR after intra-cisternal injection and NTS microinjection [11]: increased BP and HR

Molecule: COC(=O)[C@@H]1[C@H]2C[C@H]3c4[nH]c5ccccc5c4CCN3C[C@@H]2CC[C@@H]1O [Yohimbine]
- LPS-induced elevations of IL-1β, IL-6, IFN-γ and TNF-α levels [8]: reduced only IL-1β and TNF-α
- LPS-induced production of IFN-γ ([8]; 1 hour after LPS administration): insignificantly enhanced
- pD2 at 3rd hr [9, 16]: 6.12 ± 0.14
- pD2 at 5th hr [9, 16]: 5.13 ± 0.26
- pD2 at 3rd hr [9, 17]: 6.73 ± 0.33
- pD2 at 5th hr [9, 17]: 3.44 ± 0.22
- aortic hyporeactivity and second prolonged hypotensive reaction induced by LPS [10]: inhibited
- IC50 [12]: 980 nM
- BP and HR after intra-cisternal injection and NTS microinjection [11]: increased BP and HR
- clonidine-induced bradycardia ([11]; low dose (0.03 μmol)): did not inhibit
- clonidine-induced hypotension ([11]; low dose (0.03 μmol)): reduced
- IC50 [13]: 11.1 ± 0.35 µM

Molecule: Isoeugenodilol [reference compound]
- Ki [4]: 38.9 nM
- Ki [14]: 0.0537 µM
- Ki [7]: 43.6 nM
- Ki [15]: 1010 nM
- Ki [6]: 9700 nM

Molecule: Isoeugenolol [reference compound]
- Ki [4]: > 10000 nM
- Ki [14]: 6.86 µM
- Ki [7]: 209 nM
- Ki [15]: 585 nM
- Ki [6]: > 10000 nM

Molecule: Methsergide [reference compound]
- Ki [2]: > 10 µM
- Ki [4]: > 10000 nM
- Ki ([5]; read-out: Ki 5-HT1A, [3H]WAY100635): > 10 µM
- Ki [6]: 2430 nM
